Test results reported in patent US20230151025A1, “SUBSTITUTED THIAZOLOPYRIDINES, SALTS THEREOF AND THEIR USE AS HERBICIDALLY ACTIVE SUBSTANCES” (Bayer Aktiengesellschaft, priority 2020, published 2023).

system: Setaria viridis (SETVI); assay: Herbicidal pre-emergence action (A), 1280 g/ha; format: in vivo; details: visual grading after ca. 3 weeks vs untreated controls
Procedure, shortened: (§1)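 Pre-emergence soil-surface spray, 600 l/ha water, 0.5% additive, WP or EC formulation. Sandy loam, double sowing per pot, greenhouse under optimum growth. Visual % damage at ~3 wk vs untreated; 100% = plants died off.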

SMILES | herbicidal effect SETVI
Cc1cc2scnc2nc1C12CCCCC1O2 (stereo not shown) [Example I-151] | 100%

system: Stellaria media (STEME); assay: Herbicidal pre-emergence action (A), 1280 g/ha; format: in vivo; details: visual grading after ca. 3 weeks vs untreated controls
Procedure, shortened: as §1

SMILES | herbicidal effect STEME
Cc1cc2scnc2nc1C12CCCCC1O2 (stereo not shown) [Example I-151] | 100%

system: Echinochloa crus-galli (ECHCG); assay: Herbicidal pre-emergence action (A), 1280 g/ha; format: in vivo; details: visual grading after ca. 3 weeks vs untreated controls, 100% = plants have died off, 0% = as control plants
Procedure, shortened: as §1

SMILES | ECHCG, herbicidal effect in percent (%)
Cc1cc2scnc2nc1C12CCCCC1O2 (stereo not shown) [Example I-151] | 100%

system: Amaranthus retroflexus (AMARE); assay: Herbicidal pre-emergence action (A), 1280 g/ha; format: in vivo; details: visual grading after ca. 3 weeks vs untreated controls
Procedure, shortened: as §1

SMILES | herbicidal effect AMARE
Cc1cc2scnc2nc1C12CCCCC1O2 (stereo not shown) [Example I-151] | 100%

system: Matricaria inodora (MATIN); assay: Herbicidal pre-emergence action (A), 1280 g/ha; format: in vivo; details: visual grading after ca. 3 weeks vs untreated controls
Procedure, shortened: as §1

SMILES | herbicidal effect MATIN
Cc1cc2scnc2nc1C12CCCCC1O2 (stereo not shown) [Example I-151] | 90%

system: Lolium rigidum (LOLRI); assay: Herbicidal pre-emergence action (A), 1280 g/ha; format: in vivo; details: visual grading after ca. 3 weeks vs untreated controls, 100% = plants have died off, 0% = as control plants
Procedure, shortened: as §1

SMILES | LOLRI, herbicidal effect in percent (%)
Cc1cc2scnc2nc1C12CCCCC1O2 (stereo not shown) [Example I-151] | 100%

system: Veronica persica (VERPE); assay: Herbicidal pre-emergence action (A), 1280 g/ha; format: in vivo; details: visual grading after ca. 3 weeks vs untreated controls
Procedure, shortened: as §1

SMILES | herbicidal effect VERPE
Cc1cc2scnc2nc1C12CCCCC1O2 (stereo not shown) [Example I-151] | 90%

system: Kochia scoparia (KCHSC; Bassia scoparia); assay: Herbicidal pre-emergence action (A), 1280 g/ha; format: in vivo; details: visual grading after ca. 3 weeks vs untreated controls
Procedure, shortened: as §1

SMILES | herbicidal effect KCHSC
Cc1cc2scnc2nc1C12CCCCC1O2 (stereo not shown) [Example I-151] | 100%

system: Abutilon theophrasti (ABUTH); assay: Herbicidal pre-emergence action (A), 1280 g/ha; format: in vivo; details: visual grading after ca. 3 weeks vs untreated controls, 100% = plants have died off, 0% = as control plants
Procedure, shortened: as §1

SMILES | ABUTH, herbicidal effect in percent (%)
Cc1cc2scnc2nc1C12CCCCC1O2 (stereo not shown) [Example I-151] | 90%

system: Alopecurus myosuroides (ALOMY); assay: Herbicidal pre-emergence action (A), 1280 g/ha; format: in vivo; details: visual grading after ca. 3 weeks vs untreated controls, 100% = plants have died off, 0% = as control plants
Procedure, shortened: as §1

SMILES | ALOMY, herbicidal effect in percent (%)
Cc1cc2scnc2nc1C12CCCCC1O2 (stereo not shown) [Example I-151] | 100%

system: Digitaria sanguinalis (DIGSA); assay: Herbicidal pre-emergence action (A), 1280 g/ha; format: in vivo; details: visual grading after ca. 3 weeks vs untreated controls, 100% = plants have died off, 0% = as control plants
Procedure, shortened: as §1

SMILES | DIGSA, herbicidal effect in percent (%)
Cc1cc2scnc2nc1C12CCCCC1O2 (stereo not shown) [Example I-151] | 100%

system: Poa annua (POAAN); assay: Herbicidal pre-emergence action (A), 1280 g/ha; format: in vivo; details: visual grading after ca. 3 weeks vs untreated controls, 100% = plants have died off, 0% = as control plants
Procedure, shortened: as §1

SMILES | POAAN, herbicidal effect in percent (%)
Cc1cc2scnc2nc1C12CCCCC1O2 (stereo not shown) [Example I-151] | 100%

system: Stellaria media (STEME); assay: Herbicidal post-emergence action (B), 1280 g/ha; format: in vivo; details: not given
Procedure, shortened: (§2)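 Percent activity is a visual score taken about 3 weeks after treatment, relative to untreated plants, where 100% means the plants died and 0% means no difference from controls. Plants were sprayed on green parts at the one-leaf stage with an aqueous suspension or emulsion containing 0.5% additive at 600 L/ha.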

SMILES | herbicidal effect STEME
Cc1cc2scnc2nc1C12CCCCC1O2 (stereo not shown) [Example I-151] | 100%

system: Amaranthus retroflexus (AMARE); assay: Herbicidal post-emergence action (B), 1280 g/ha; format: in vivo; details: rated visually after about 3 weeks vs untreated controls
Procedure, shortened: as §2

SMILES | herbicidal activity AMARE
Cc1cc2scnc2nc1C12CCCCC1O2 (stereo not shown) [Example I-151] | 100%

system: Veronica persica (VERPE); assay: Herbicidal post-emergence action (B), 1280 g/ha; format: in vivo; details: not given
Procedure, shortened: as §2

SMILES | herbicidal effect VERPE
Cc1cc2scnc2nc1C12CCCCC1O2 (stereo not shown) [Example I-151] | 100%

system: Kochia scoparia (KCHSC; Bassia scoparia); assay: Herbicidal post-emergence action (B), 1280 g/ha; format: in vivo; details: not given
Procedure, shortened: as §2

SMILES | herbicidal effect KCHSC
Cc1cc2scnc2nc1C12CCCCC1O2 (stereo not shown) [Example I-151] | 100%

system: Alopecurus myosuroides (ALOMY); assay: Herbicidal post-emergence action (B), 1280 g/ha; format: in vivo; details: rated visually after about 3 weeks vs untreated controls
Procedure, shortened: as §2

SMILES | herbicidal activity ALOMY
Cc1cc2scnc2nc1C12CCCCC1O2 (stereo not shown) [Example I-151] | 100%

system: Poa annua (POAAN); assay: Herbicidal post-emergence action (B), 1280 g/ha; format: in vivo; details: rated visually after about 3 weeks vs untreated controls
Procedure, shortened: as §2

SMILES | herbicidal activity POAAN
Cc1cc2scnc2nc1C12CCCCC1O2 (stereo not shown) [Example I-151] | 100%

system: Amaranthus retroflexus (AMARE); assay: Herbicidal post-emergence action (D), 320 g/ha; format: in vivo; details: ca. 3 weeks
Procedure, shortened: (§3)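 Post-emergence greenhouse test. Sandy loam; spray at single-leaf stage (2–3 wk after sowing); WP or EC in water + 0.5% additive, 600 l/ha. Visual rating ~3 wk post-spray, % effect vs untreated (0 = control, 100 = dead).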

SMILES | herbicidal effect AMARE
Cc1cc2scnc2nc1C12CCCCC1O2 (stereo not shown) [Example I-151] | 80%

system: Veronica persica (VERPE); assay: Herbicidal post-emergence action (D), 320 g/ha; format: in vivo; details: ca. 3 weeks
Procedure, shortened: as §3

SMILES | herbicidal effect VERPE
Cc1cc2scnc2nc1C12CCCCC1O2 (stereo not shown) [Example I-151] | 80%

system: Alopecurus myosuroides (ALOMY); assay: Herbicidal post-emergence action (D), 320 g/ha; format: in vivo; details: ca. 3 weeks
Procedure, shortened: as §3

SMILES | herbicidal effect ALOMY
Cc1cc2scnc2nc1C12CCCCC1O2 (stereo not shown) [Example I-151] | 80%

system: Setaria viridis (SETVI); assay: Herbicidal pre-emergence action (C), 320 g/ha; format: in vivo; details: ca. 3 weeks
Procedure, shortened: (§4)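 Pre-emergence soil-surface spray: WP/EC formulation in water plus 0.5% additive, 600 l/ha, applied over freshly sown, soil-covered seeds in sandy loam. Greenhouse, optimum conditions, ~3 weeks. Visual % damage vs untreated (100% = dead).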

SMILES | herbicidal effect SETVI
Cc1cc2scnc2nc1C12CCCCC1O2 (stereo not shown) [Example I-151] | 100%

system: Polygonum convolvulus (POLCO); assay: Herbicidal pre-emergence action (C), 320 g/ha; format: in vivo; details: ca. 3 weeks
Procedure, shortened: as §4

SMILES | herbicidal effect POLCO
Cc1cc2scnc2nc1C12CCCCC1O2 (stereo not shown) [Example I-151] | 80%

system: Amaranthus retroflexus (AMARE); assay: Herbicidal pre-emergence action (C), 320 g/ha; format: in vivo; details: ca. 3 weeks
Procedure, shortened: as §4

SMILES | herbicidal effect AMARE
Cc1cc2scnc2nc1C12CCCCC1O2 (stereo not shown) [Example I-151] | 90%

system: Lolium rigidum (LOLRI); assay: Herbicidal pre-emergence action (C), 320 g/ha; format: in vivo; details: ca. 3 weeks
Procedure, shortened: as §4

SMILES | herbicidal effect LOLRI
Cc1cc2scnc2nc1C12CCCCC1O2 (stereo not shown) [Example I-151] | 90%

system: Veronica persica (VERPE); assay: Herbicidal pre-emergence action (C), 320 g/ha; format: in vivo; details: ca. 3 weeks
Procedure, shortened: as §4

SMILES | herbicidal effect VERPE
Cc1cc2scnc2nc1C12CCCCC1O2 (stereo not shown) [Example I-151] | 90%

system: Alopecurus myosuroides (ALOMY); assay: Herbicidal pre-emergence action (C), 320 g/ha; format: in vivo; details: ca. 3 weeks
Procedure, shortened: as §4

SMILES | herbicidal effect ALOMY
Cc1cc2scnc2nc1C12CCCCC1O2 (stereo not shown) [Example I-151] | 100%

system: Digitaria sanguinalis (DIGSA); assay: Herbicidal pre-emergence action (C), 320 g/ha; format: in vivo; details: ca. 3 weeks
From the text: Seeds of mono- and dicotyledonous weed plants and crop plants were sown, in plastic or organic planting pots, in sandy loam and covered with soil. The compounds according to the invention, formulated in the form of wettable powders (WP) or as emulsifiable concentrates (EC), were applied to the surface of the covering soil as aqueous suspension or emulsion, with the addition of 0.5% of an additive, at an application rate of 600 l of water/ha (converted).
Following treatment, the pots were placed in a greenhouse and kept under optimum growth conditions for the test plants. The visual grading of the damage to the test plants was carried out after ca. 3 weeks in comparison to untreated controls (herbicidal effect in percent (%): 100% effect=plants have died off, 0% effect=as control plants).
Tables C1 to C13 below show the effects of selected compounds of the general formula (I) according to table 1 on various harmful plants and an application rate corresponding to 320 g/ha obtained by the experimental procedure mentioned above.

SMILES | herbicidal effect DIGSA
Cc1cc2scnc2nc1C12CCCCC1O2 (stereo not shown) [Example I-151] | 100%
